Literature values, collected in US20210113548A1, “METHODS FOR DETERMINING A DRUG DOSING REGIMEN” (Clear Creek Bio, Inc., priority 2019, published 2021).

How the values were obtained:
solid tumor malignancies = conditions: administered over a 5-day period followed by a 3-week gap or once per week for three weeks followed by a 1-week gap

Structure (SMILES): Cc1c(-c2ccc(-c3ccccc3F)cc2)nc2ccc(F)cc2c1C(=O)O [brequinar, 6-fluoro-2-(2′-fluoro-1,1′ biphenyl-4-yl)-3-methyl-4-quinoline carboxylic acid]
- adverse effects of daily administration of high doses (mouse model of AML): weight loss, anemia, and thrombocytopenia
- efficacy in treatment of solid tumor malignancies (solid tumor malignancies): ineffective
